According to patent US6737383B1, “Herbicidal oxadiazolidines” (priority 1999, dated 2004):

Columns and labels:
bedstraw = test: Test B pre/postemergence bedstraw; format: in vivo, Galium aparine
In short: (§1)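 Response is a visual 0-to-10 score relative to untreated plants, where 0 means no effect and 10 means complete control, taken twelve to sixteen days after application. Treatments went onto soil at planting and onto foliage of 1- to 4-leaf plants, using a surfactant-containing non-phytotoxic solvent.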

blackgrass = test: Test B pre/postemergence blackgrass; format: in vivo, Alopecurus myosuroides
In short: as §1

surinam grass = test: Test B pre/postemergence surinam grass; format: in vivo, Brachiaria decumbens
In short: as §1

smallflower flatsedge = test: Test B flood test smallflower flatsedge; format: in vivo, Cyperus difformis
In short: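 Plants were grown to the 2-leaf stage before treatment with test chemical, then held in a greenhouse for twelve to sixteen days. Injury was visually rated against untreated controls on a 0–10 scale, where 0 is no effect and 10 is complete control.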

[1] = Preemergence, Rate 62 g/ha, scale of 0 to 10 where 0 is no effect and 10 is complete control
[2] = Preemergence, Rate 250 g/ha, scale of 0 to 10 where 0 is no effect and 10 is complete control
[3] = Preemergence, Rate 500 g/ha, scale of 0 to 10 where 0 is no effect and 10 is complete control
[4] = Rate 62 g/ha, Postemergence, scale 0 to 10, 0 no effect, 10 complete control
[5] = Rate 125 g/ha, Postemergence, scale of 0 to 10 where 0 is no effect and 10 is complete control
[6] = Rate 250 g/ha, Postemergence, scale of 0 to 10 where 0 is no effect and 10 is complete control
[7] = Rate 500 g/ha, Postemergence, scale 0 to 10, 0 no effect, 10 complete control
[8] = Postemergence, Rate 62 g/ha, scale 0 to 10, 0 is no effect, 10 is complete control
[9] = Postemergence, Rate 250 g/ha, scale 0 to 10, 0 no effect, 10 complete control
[10] = Preemergence, Rate 62 g/ha, scale 0 to 10 (0 no effect, 10 complete control)
[11] = Preemergence, Rate 125 g/ha, scale 0 to 10 (0 no effect, 10 complete control)
[12] = Preemergence, Rate 500 g/ha, scale 0 (no effect) to 10 (complete control)
[13] = Rate 125 g/ha, Postemergence, scale 0 to 10, 0 no effect, 10 complete control
[14] = Rate 125 g/ha, Postemergence section (flood test species), scale 0 to 10, 0 no effect, 10 complete control
[15] = flood test, listed under Postemergence, Rate 250 g/ha, scale 0 to 10, 0 no effect, 10 complete control
[16] = Postemergence, Rate 1000 g/ha, scale 0 to 10 (0 no effect, 10 complete control)
[17] = Rate 500 g/ha, Postemergence, 0 to 10 scale (0 no effect, 10 complete control)
[18] = Rate 1000 g/ha, Preemergence, scale 0 to 10 (0 no effect, 10 complete control)

In the case of `Cc1ccccc1-n1c(=O)on(C(=O)N(c2ccncc2)C(C)C)c1=O` [Compound 301], the “Bedstraw plant response rating” value (bedstraw; [1]) is reported as 0, the “Bedstraw plant response rating (0 to 10 scale)” value (bedstraw; Preemergence, Rate 125 g/ha) is reported as 0 and the “Bedstraw plant response rating” value (bedstraw; [2]) is reported as 0. The “Bedstraw plant response rating” value (bedstraw; [3]) was 0, the “Bedstraw plant response rating” value (bedstraw; [4]) was 0 and the “Bedstraw plant response rating” value (bedstraw; [5]) was 0. For the same compound, the “Blackgrass plant response rating” value (blackgrass; [1]) was 0, the “Blackgrass plant response rating (0 to 10 scale)” value (blackgrass; Preemergence, Rate 125 g/ha) was 0 and the “Blackgrass plant response rating” value (blackgrass; [2]) was 0. The “Blackgrass plant response rating” value (blackgrass; [3]) was 0, the “Blackgrass plant response rating” value (blackgrass; [4]) was 0 and the “Blackgrass plant response rating” value (blackgrass; [5]) was 0. The “Plant response rating, Blackgrass” value (blackgrass; [6]) was 0, the “Blackgrass plant response rating” value (blackgrass; [7]) was 0 and the “B. signalgrass plant response rating” value (surinam grass; [1]) was 0. For the same compound, the “B. signalgrass plant response rating (0 to 10 scale, 0 is no effect, 10 is complete control)” value (surinam grass; Preemergence, Rate 125 g/ha) was 0, the “B. signalgrass plant response rating” value (surinam grass; [2]) was 0 and the “B. signalgrass plant response rating” value (surinam grass; [3]) was 0. The “B. signalgrass plant response rating” value (surinam grass; [4]) was 0, the “B. signalgrass plant response rating” value (surinam grass; [5]) was 0 and the “Plant response rating, B. signalgrass” value (surinam grass; [6]) was 0. The “B. signalgrass plant response rating” value (surinam grass; [7]) was 0, the “S. Flatsedge plant response rating” value (smallflower flatsedge; Rate 62 g/ha, headed Pre-emergence (flood test species), scale 0 to 10 (0 no effect, 10 complete control)) was 0 and the “S. Flatsedge plant response rating” value (smallflower flatsedge; Rate 125 g/ha, Pre-emergence, flood test species, scale 0 to 10 where 0 is no effect and 10 is complete control) was 0. The “S. Flatsedge plant response rating” value (smallflower flatsedge; Rate 250 g/ha, Pre-emergence, flood-test species, scale 0 to 10, 0 is no effect, 10 is complete control) was 0 and the “S. Flatsedge plant response rating” value (smallflower flatsedge; Rate 500 g/ha, Pre-emergence, flood test species, scale 0 to 10 (0 no effect, 10 complete control)) was 0.

For `Cc1ccccc1-n1c(=O)on(C(=O)N(c2cc(F)ccc2F)C(C)C)c1=O` [Compound 68], the “Bedstraw plant response rating” value (bedstraw; [8]) was 4, the “Bedstraw plant response rating” value (bedstraw; [9]) was 7 and the “Bedstraw plant response rating” value (bedstraw; [10]) was 0. For the same compound, the “Plant response rating, Bedstraw” value (bedstraw; [11]) was 0, the “Plant response rating, Bedstraw” value (bedstraw; [2]) was 4 and the “Bedstraw plant response rating” value (bedstraw; [12]) was 4. The “Bedstraw plant response rating” value (bedstraw; [13]) was 7, the “Blackgrass plant response rating” value (blackgrass; [8]) was 0 and the “Blackgrass plant response rating” value (blackgrass; [9]) was 2. For the same compound, the “Blackgrass plant response rating” value (blackgrass; [10]) was 0, the “Plant response rating, Blackgrass” value (blackgrass; [11]) was 2 and the “Plant response rating, Blackgrass” value (blackgrass; [2]) was 2. The “Blackgrass plant response rating” value (blackgrass; [12]) was 4, the “Blackgrass plant response rating” value (blackgrass; [13]) was 0 and the “Blackgrass plant response rating” value (blackgrass; [7]) was 2. For the same compound, the “B. signalgrass plant response rating” value (surinam grass; [8]) was 0, the “B. signalgrass plant response rating” value (surinam grass; [9]) was 0 and the “B. signalgrass plant response rating” value (surinam grass; [10]) was 0. The “Plant response rating, B. signalgrass” value (surinam grass; [11]) was 3, the “Plant response rating, B. signalgrass” value (surinam grass; [2]) was 4 and the “B. signalgrass plant response rating” value (surinam grass; [12]) was 8. For the same compound, the “B. signalgrass plant response rating” value (surinam grass; [13]) was 0, the “B. signalgrass plant response rating” value (surinam grass; Rate 500 g/ha, Postemergence, scale of 0 to 10 where 0 is no effect and 10 is complete control) was 0 and the “S. Flatsedge plant response rating” value (smallflower flatsedge; [8]) was 0. For the same compound, the “S. Flatsedge plant response rating” value (smallflower flatsedge; [14]) was 0, the “S. Flatsedge plant response rating” value (smallflower flatsedge; Rate 500 g/ha, listed under Postemergence (flood test species), scale 0 to 10, 0 no effect, 10 complete control) was 0 and the “S. Flatsedge plant response rating” value (smallflower flatsedge; [15]) was 0.

For `CCN(CC)C(=O)n1oc(=O)n(-c2ccc(OC(F)(F)F)cc2)c1=O` [Compound 12], the “Bedstraw plant response rating” value (bedstraw; [9]) was 0, the “Bedstraw plant response rating” value (bedstraw; [16]) was 0 and the “Plant response rating, Bedstraw” value (bedstraw; [11]) was 0. The “Plant response rating, Bedstraw” value (bedstraw; [2]) was 0, the “Bedstraw plant response rating” value (bedstraw; [12]) was 0 and the “Bedstraw plant response rating” value (bedstraw; [13]) was 0. The “Bedstraw plant response rating” value (bedstraw; [17]) was 0, the “Plant response rating, Bedstraw” value (bedstraw; [18]) was 0 and the “Blackgrass plant response rating” value (blackgrass; [9]) was 0. The “Blackgrass plant response rating” value (blackgrass; [16]) was 0, the “Plant response rating, Blackgrass” value (blackgrass; [11]) was 0 and the “Plant response rating, Blackgrass” value (blackgrass; [2]) was 0. For the same compound, the “Blackgrass plant response rating” value (blackgrass; [12]) was 2, the “Blackgrass plant response rating” value (blackgrass; [13]) was 0 and the “Blackgrass plant response rating” value (blackgrass; [17]) was 0. For the same compound, the “Plant response rating, Blackgrass” value (blackgrass; [18]) was 4, the “B. signalgrass plant response rating” value (surinam grass; [9]) was 0 and the “B. signalgrass plant response rating” value (surinam grass; [16]) was 0. For the same compound, the “Plant response rating, B. signalgrass” value (surinam grass; [11]) was 0, the “Plant response rating, B. signalgrass” value (surinam grass; [2]) was 0 and the “B. signalgrass plant response rating” value (surinam grass; [12]) was 0. The “B. signalgrass plant response rating” value (surinam grass; [13]) was 0, the “B. signalgrass plant response rating” value (surinam grass; [17]) was 0 and the “Plant response rating, B. signalgrass” value (surinam grass; [18]) was 6. For the same compound, the “S. Flatsedge plant response rating” value (smallflower flatsedge; [16]) was 0, the “S. Flatsedge plant response rating” value (smallflower flatsedge; [14]) was 0 and the “S. Flatsedge plant response rating” value (smallflower flatsedge; [15]) was 0.
